Source: ChEMBL document CHEMBL1150080, “Asimilobin and cis- and trans-murisolinones, novel bioactive Annonaceous acetogenins from the seeds of Asimina triloba” (J Nat Prod, 1995)
≈ marks a conversion by molar mass, not a printed value.

Tests used:
[1] = Toxicity to brine shrimp larvae; type: organism-based; settings: artemia, in vivo
A549 = assay: Cytotoxicity against human A549 cells after 7 days by MTT assay; type: functional; settings: A549, 168 h, read-out: ED50 (the source's name)
MCF7 = assay: Cytotoxicity against human MCF7 cells after 7 days by MTT assay; type: functional; settings: MCF7, 168 h, read-out: ED50 (the source's name)
HT-29 = assay: Cytotoxicity against human HT-29 cells after 7 days by MTT assay; type: functional; settings: HT-29, 168 h, read-out: ED50 (the source's name)
A498 = assay: Cytotoxicity against human A498 cells after 7 days by MTT assay; type: functional; settings: A498, 168 h, read-out: ED50 (the source's name)
PC-3 = assay: Cytotoxicity against human PC3 cells after 7 days by MTT assay; type: functional; settings: PC-3, 168 h, read-out: ED50 (the source's name)
MIA PaCa-2 = assay: Cytotoxicity against human MIAPaCa2 cells after 7 days by MTT assay; type: functional; settings: MIA PaCa-2, 168 h, read-out: ED50 (the source's name)

SMILES | LC50 [1] [µg/mL] | EC50 (A549) [µg/mL] | EC50 (MCF7) [µg/mL] | EC50 (HT-29) [µg/mL] | EC50 (A498) [µg/mL] | EC50 (PC-3) [µg/mL] | EC50 (MIA PaCa-2) [µg/mL]
CCCCCCCCCCC[C@@H](O)[C@H]1CC[C@H]([C@H](O)CCCCCCCCCC[C@@H]2C[C@H](CC(C)=O)C(=O)O2)O1 | 12.3 (≈ 21.7 µM) | 0.148 (≈ 0.261 µM) | 0.0793 (≈ 0.14 µM) | 0.754 (≈ 1.33 µM) | 3.44 (≈ 6.07 µM) | 1.48 (≈ 2.61 µM) | 0.107 (≈ 0.189 µM)
CCCCCCCCCCC[C@@H](O)[C@H]1CC[C@H]([C@H](O)CCCCCCCCCC[C@H]2C[C@H](CC(C)=O)C(=O)O2)O1 | 18.2 (≈ 32.1 µM) | 0.0276 (≈ 0.0487 µM) | 0.0296 (≈ 0.0522 µM) | 1.16 (≈ 2.05 µM) | 1.23 (≈ 2.17 µM) | 0.214 (≈ 0.378 µM) | 0.0059 (≈ 0.0104 µM)
CCCCCCCCCCCCCC[C@H](O)[C@@H]1CC[C@@H]([C@@H]2CC[C@@H](CCCCC[C@@H](O)CC3=C[C@H](C)OC3=O)O2)O1 [ASIMILOBIN] | 1.06 (≈ 1.83 µM) | 0.0301 (≈ 0.052 µM) | 2.14 (≈ 3.7 µM) | 0.063 (≈ 0.109 µM) | 0.0226 (≈ 0.039 µM) | 1.47 (≈ 2.54 µM) | 0.104 (≈ 0.18 µM)
COc1cccc2c1C(=O)c1c(O)c3c(c(O)c1C2=O)C[C@@](O)(C(=O)CO)C[C@@H]3O[C@H]1C[C@H](N)[C@H](O)[C@H](C)O1 [DOXORUBICIN] | – | 0.00101 (≈ 0.00186 µM) | 0.0103 (≈ 0.019 µM) | 0.0262 (≈ 0.0482 µM) | – | 0.0196 (≈ 0.0361 µM) | 0.00132 (≈ 0.00243 µM)
